The values below are quoted from earlier work in patent US10292957B2, “Compositions and methods for treating fibromyalgia” (Quality IP Holdings, LLC, priority 2012, dated 2019).

Data set [1] has as its system hGH secretion. Particulars: for Effect on hGH: other amino acids, literature.
For data set [2], the system named is HGH-deficient adults. The note with it: within months of hGH treatment.
Data set [3] has as its system patients with fibromyalgia. Particulars: 4 days treatment.
Data set [4] relates to patients with severe fibromyalgia and low insulin-like growth factor 1 levels.
Data set [5] has as its system fibromyalgia patients with low IGF-1 levels.
Data set [6] has as its system women with fibromyalgia and low IGF-1 levels.
For data set [7] the following is noted: after subcutaneous injection of 0.06 IU, hGH deficient subjects.

For the compound `N=C(N)NCCC[C@H](N)C(=O)O` [arginine], in data set [1] (30 g, males), the “Elevation of serum hGH levels” value is given as 8.6 fold. Moreover, the “Increase of hGH levels” value in data set [1] (intravenous infusion of 183 mg/kg body weight, females) is over 20 fold.
Take `NCCCC[C@H](N)C(=O)O` [lysine]: the “Effect on hGH” value in data set [1] was “marked increases”.
Turning to `N[C@@H](Cc1ccccc1)C(=O)O` [phenylalanine], the “Effect on hGH” value in data set [1] was “marked increases”.
Turning to `CSCC[C@H](N)C(=O)O` [methionine], the “Effect on hGH” value in data set [1] is listed as “marked increases”.
On to hGH: human growth hormone, injectable, for which the “Lean body mass, skin thickness and muscle mass” value in data set [2] is reported as “gains”. In data set [3], the “Plasma IGF-1 levels” value was “increase” and the “Plasma IGF-BP3 levels” value was “increase”. Moreover, the Pain result in data set [4] (addition to the standard treatment, sustained action over time) is listed as “effective in reducing pain”. For the same compound, the “FIQ scores compared with placebo group” value in data set [4] (low-dose add-on to standard treatment, 120 patients) is given as “significantly improved”. Further, the “Tolerability of concomitant administration with standard therapy” value in data set [5] (no patients discontinued due to adverse events) is recorded as “well tolerated”. Moreover, in data set [5] (subcutaneous, added to standard therapy, one year, end of study), the “Reduction in the mean number of tender points (pairs) compared to the control group” value is given as 60%. Further, in data set [6] (at nine months), the “FIQ score and tender point score over the placebo group” value was “significant improvement”. Besides, the IGF-1 levels result in data set [6] (daily subcutaneous injections) is “prompt and sustained increase”. Also, the “Mean levels of hGH reached” value in data set [7] is 0.4 ng/mL.
`NCCC[C@H](N)C(=O)O` [ornithine]: in data set [1], the “Effect on hGH” value is recorded as “marked increases”.
As for `N[C@@H](Cc1c[nH]cn1)C(=O)O` [histidine], the “Effect on hGH” value in data set [1] is listed as “marked increases”.
